Source: the supplement of paper PMC11451515

Test system: P12-Ichikawa
Assay: cell viability relative to DMSO control; higher = less cytotoxic
Conditions: 48 h
Summary of the method: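 Library compounds in DMSO were pin-dosed into 1536-well plates (5 μl) holding NOMO1 or SEM (500 cells/well) or P12-Ichikawa (1000 cells/well) leukemia cells, across an 11-point threefold series of 47 μM to 0.79 nM. Each cell line had been adapted for at least four passages in each medium. CellTiter-Glo One luminescence was read after 48 h at 37°C. Viability is the per-plate percentage relative to DMSO wells, with cell-free wells as background.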

[1] = HPLM + 10% dialyzed FBS, 0.000781 µM
[2] = HPLM + 10% dialyzed FBS, 0.00234 µM
[3] = HPLM + 10% dialyzed FBS, 0.00702 µM
[4] = HPLM + 10% dialyzed FBS, 0.0211 µM
[5] = HPLM + 10% dialyzed FBS, 0.0632 µM
[6] = HPLM + 10% dialyzed FBS, 0.19 µM
[7] = HPLM + 10% dialyzed FBS, 0.569 µM
[8] = HPLM + 10% dialyzed FBS, 1.71 µM
[9] = HPLM + 10% dialyzed FBS, 5.12 µM
[10] = HPLM + 10% dialyzed FBS, 15.4 µM
[11] = HPLM + 10% dialyzed FBS, 46.1 µM
[12] = RPMI 5 mM glucose + 10% FBS, 0.000781 µM
[13] = RPMI 5 mM glucose + 10% FBS, 0.00234 µM
[14] = RPMI 5 mM glucose + 10% FBS, 0.00702 µM
[15] = RPMI 5 mM glucose + 10% FBS, 0.0211 µM
[16] = RPMI 5 mM glucose + 10% FBS, 0.0632 µM
[17] = RPMI 5 mM glucose + 10% FBS, 0.19 µM
[18] = RPMI 5 mM glucose + 10% FBS, 0.569 µM
[19] = RPMI 5 mM glucose + 10% FBS, 1.71 µM
[20] = RPMI 5 mM glucose + 10% FBS, 5.12 µM
[21] = RPMI 5 mM glucose + 10% FBS, 15.4 µM
[22] = RPMI 5 mM glucose + 10% FBS, 46.1 µM
[23] = RPMI 5 mM glucose + 10% dialyzed FBS, 0.000781 µM
[24] = RPMI 5 mM glucose + 10% dialyzed FBS, 0.00234 µM
[25] = RPMI 5 mM glucose + 10% dialyzed FBS, 0.00702 µM
[26] = RPMI 5 mM glucose + 10% dialyzed FBS, 0.0211 µM
[27] = RPMI 5 mM glucose + 10% dialyzed FBS, 0.0632 µM
[28] = RPMI 5 mM glucose + 10% dialyzed FBS, 0.19 µM
[29] = RPMI 5 mM glucose + 10% dialyzed FBS, 0.569 µM
[30] = RPMI 5 mM glucose + 10% dialyzed FBS, 1.71 µM
[31] = RPMI 5 mM glucose + 10% dialyzed FBS, 5.12 µM
[32] = RPMI 5 mM glucose + 10% dialyzed FBS, 15.4 µM
[33] = RPMI 5 mM glucose + 10% dialyzed FBS, 46.1 µM

`C[C@@H](O)[C@@H]1[C@H]2[C@@H](C)\C(=C(/N2C1=O)C(=O)OCOC(=O)C(C)(C)C)SC3CN(C3)/C4=N/CCS4` was tested, and the cell viability [1] was 95.2%, the cell viability [2] was 107% and the cell viability [3] was 110%. It also gave a cell viability [4] of 111%, a cell viability [5] of 112% and a cell viability [6] of 108%. For the same compound, the cell viability [7] was 111%, the cell viability [8] was 112% and the cell viability [9] was 112%. The cell viability [10] was 116%, the cell viability [11] was 109% and the cell viability [12] was 78.9%. For the same compound, the cell viability [13] was 102%, the cell viability [14] was 108% and the cell viability [15] was 100%. It also gave a cell viability [16] of 109%, a cell viability [17] of 104% and a cell viability [18] of 107%. For the same compound, the cell viability [19] was 111%, the cell viability [20] was 107% and the cell viability [21] was 111%. For the same compound, the cell viability [22] was 103%, the cell viability [23] was 97.3% and the cell viability [24] was 106%. It also gave a cell viability [25] of 109%, a cell viability [26] of 118% and a cell viability [27] of 107%. For the same compound, the cell viability [28] was 108%, the cell viability [29] was 109% and the cell viability [30] was 102%. The cell viability [31] was 111%, the cell viability [32] was 111% and the cell viability [33] was 111%.
`COc1cc(C(C)=O)ccc1OCCCN1CCC(c2noc3cc(F)ccc23)CC1` showed a cell viability [1] of 118%, a cell viability [2] of 115% and a cell viability [3] of 119%. For the same compound, the cell viability [4] was 127%, the cell viability [5] was 124% and the cell viability [6] was 127%. It also gave a cell viability [7] of 129%, a cell viability [8] of 124% and a cell viability [9] of 129%. For the same compound, the cell viability [10] was 125% and the cell viability [11] was 120%.
In the case of `C[C@@]12O[C@@H](C[C@]1(O)CO)n1c3ccccc3c3c4c(c5c6ccccc6n2c5c31)CNC4=O`, the cell viability [1] is reported as 115%, the cell viability [2] is reported as 112% and the cell viability [3] is reported as 109%. For the same compound, the cell viability [4] was 112%, the cell viability [5] was 110% and the cell viability [6] was 101%. The cell viability [7] was 81.3%, the cell viability [8] was 29.9% and the cell viability [9] was 23.2%. The cell viability [10] was 15.2%, the cell viability [11] was 12.9% and the cell viability [12] was 116%. The cell viability [13] was 117%, the cell viability [14] was 121% and the cell viability [15] was 110%. For the same compound, the cell viability [16] was 111%, the cell viability [17] was 98.2% and the cell viability [18] was 70.5%. For the same compound, the cell viability [19] was 26.1%, the cell viability [20] was 26.6% and the cell viability [21] was 15.6%. It also gave a cell viability [22] of 8.24%, a cell viability [23] of 115% and a cell viability [24] of 109%. The cell viability [25] was 115%, the cell viability [26] was 103% and the cell viability [27] was 97.6%. For the same compound, the cell viability [28] was 104%, the cell viability [29] was 62.3% and the cell viability [30] was 33.8%. It also gave a cell viability [31] of 24.3%, a cell viability [32] of 9.03% and a cell viability [33] of 8.99%.
`CC(=O)CC(C1=CC=CC=C1)C/2=C(O)/C3=CC=CC=C3OC2=O` (stereo unspecified) gave a cell viability [1] of 106%, a cell viability [2] of 112% and a cell viability [3] of 108%. For the same compound, the cell viability [4] was 117%, the cell viability [5] was 111% and the cell viability [6] was 125%. It also gave a cell viability [7] of 123%, a cell viability [8] of 120% and a cell viability [9] of 113%. The cell viability [10] was 118%, the cell viability [11] was 123% and the cell viability [12] was 105%. It also gave a cell viability [13] of 120%, a cell viability [14] of 130% and a cell viability [15] of 128%. The cell viability [16] was 130%, the cell viability [17] was 132% and the cell viability [18] was 132%. It also gave a cell viability [19] of 127%, a cell viability [20] of 128% and a cell viability [21] of 132%. For the same compound, the cell viability [22] was 124%, the cell viability [23] was 106% and the cell viability [24] was 122%. It also gave a cell viability [25] of 116%, a cell viability [26] of 125% and a cell viability [27] of 128%. It also gave a cell viability [28] of 127%, a cell viability [29] of 125% and a cell viability [30] of 121%. The cell viability [31] was 132%, the cell viability [32] was 132% and the cell viability [33] was 129%.
`COC[C@@H](NC(C)=O)C(=O)NCc1ccccc1` gave a cell viability [1] of 117%, a cell viability [2] of 101% and a cell viability [3] of 107%. The cell viability [4] was 118%, the cell viability [5] was 118% and the cell viability [6] was 110%. The cell viability [7] was 110%, the cell viability [8] was 111% and the cell viability [9] was 113%. For the same compound, the cell viability [10] was 104%, the cell viability [11] was 12.8% and the cell viability [12] was 94.8%. It also gave a cell viability [13] of 100%, a cell viability [14] of 112% and a cell viability [15] of 112%. The cell viability [16] was 113%, the cell viability [17] was 121% and the cell viability [18] was 111%. The cell viability [19] was 110%, the cell viability [20] was 106% and the cell viability [21] was 110%. For the same compound, the cell viability [22] was 53.5%, the cell viability [23] was 105% and the cell viability [24] was 118%. For the same compound, the cell viability [25] was 106%, the cell viability [26] was 110% and the cell viability [27] was 96.9%. The cell viability [28] was 109%, the cell viability [29] was 108% and the cell viability [30] was 116%. The cell viability [31] was 104%, the cell viability [32] was 109% and the cell viability [33] was 59.8%.
In the case of `CC1(C)OC2CC3C4CC(F)C/5=C/C(=O)/C=C\C5(C)C4C(O)CC3(C)[C@@]2(O1)C(=O)CO` (stereo partly specified), the cell viability [1] is reported as 110%, the cell viability [2] is reported as 117% and the cell viability [3] is reported as 114%. It also gave a cell viability [4] of 115%, a cell viability [5] of 107% and a cell viability [6] of 94.9%. The cell viability [7] was 78%, the cell viability [8] was 73.8% and the cell viability [9] was 71.6%. It also gave a cell viability [10] of 72.5%, a cell viability [11] of 70.7% and a cell viability [23] of 115%. The cell viability [24] was 119%, the cell viability [25] was 117% and the cell viability [26] was 102%. It also gave a cell viability [27] of 94.4%, a cell viability [28] of 76.6% and a cell viability [29] of 61.4%. The cell viability [30] was 52.1%, the cell viability [31] was 50.8% and the cell viability [32] was 45.9%. For the same compound, the cell viability [33] was 49%.
Compound `O=C(O)c1ccc(-n2nc(-c3ccccc3O)nc2-c2ccccc2O)cc1` has a cell viability [1] of 96.8%, a cell viability [2] of 114% and a cell viability [3] of 104%. The cell viability [4] was 107%, the cell viability [5] was 104% and the cell viability [6] was 108%. The cell viability [7] was 108%, the cell viability [8] was 99.9% and the cell viability [9] was 82%. The cell viability [10] was 70%, the cell viability [11] was 48.9% and the cell viability [12] was 82.8%. It also gave a cell viability [13] of 94.8%, a cell viability [14] of 107% and a cell viability [15] of 99.8%. It also gave a cell viability [16] of 102%, a cell viability [17] of 104% and a cell viability [18] of 101%. It also gave a cell viability [19] of 104%, a cell viability [20] of 73.3% and a cell viability [21] of 53.3%. For the same compound, the cell viability [22] was 29.3%, the cell viability [23] was 86.7% and the cell viability [24] was 103%. For the same compound, the cell viability [25] was 105%, the cell viability [26] was 96.2% and the cell viability [27] was 95.5%. It also gave a cell viability [28] of 102%, a cell viability [29] of 102% and a cell viability [30] of 96.7%. For the same compound, the cell viability [31] was 79.7%, the cell viability [32] was 55.7% and the cell viability [33] was 22.2%.
Work on `O=C(NC[C@H](O)CN1CCc2ccccc2C1)c1cc(NC2COC2)ncn1` yielded a cell viability [1] of 84.8%, a cell viability [2] of 87.8% and a cell viability [3] of 87.5%. For the same compound, the cell viability [4] was 86.8%, the cell viability [5] was 85.4% and the cell viability [6] was 86.1%. For the same compound, the cell viability [7] was 83.6%, the cell viability [8] was 78.9% and the cell viability [9] was 80%. The cell viability [10] was 80.6%, the cell viability [11] was 71.1% and the cell viability [12] was 74%. For the same compound, the cell viability [13] was 83.2%, the cell viability [14] was 80% and the cell viability [15] was 85.9%. The cell viability [16] was 86.2%, the cell viability [17] was 84.8% and the cell viability [18] was 77.3%. The cell viability [19] was 74%, the cell viability [20] was 70.4% and the cell viability [21] was 76.4%. It also gave a cell viability [22] of 59.3%, a cell viability [23] of 80.6% and a cell viability [24] of 88.6%. For the same compound, the cell viability [25] was 84.6%, the cell viability [26] was 87.9% and the cell viability [27] was 88.1%. For the same compound, the cell viability [28] was 86.9%, the cell viability [29] was 77.6% and the cell viability [30] was 79.1%. It also gave a cell viability [31] of 78.7%, a cell viability [32] of 72% and a cell viability [33] of 66.3%.
